Results reported in US10577350B2, “Crystalline forms of (R)-N-((4-methoxy-6-methyl-2-oxo-1,2-dihydropyridin-3-yl)methyl)-2-methyl-1-(1-(1-(2,2,2-trifluoroethyl)piperidin-4-yl)ethyl)-1H-indole-3-carboxamide” (Constellation Pharmaceuticals, Inc., priority 2015, dated 2020).

Experiments:
[1] = DVS moisture sorption at 25° C.; type: physicochemical; conditions: for Post DVS changes: after DVS, PLM, XRD, DSC, TGA; for DVS final sample wt lower than starting wt: after one full sorption cycle
Procedure: Moisture sorption profiles were generated isothermally at 25° C. using a Hiden IGAsorp moisture sorption analyzer. Samples were dried on the instrument under inert nitrogen at 40° C. for 60 min. Following drying the samples moisture sorption was determined by performing one full cycle of weight measurements at 0, 10, 20, 30, 40, 50, 60, 70, 80, 90 and 95% RH, with exposure time at each humidity set point dependent upon a minimum of 99% confidence in the F1 fit model or 15 min, with a maximum timeout of 120 min. The moisture sorption isotherms were plotted as a function of weight change (relative weight % of the dried starting weight) and % RH.

[2] = Aqueous solubility of solid forms (Table 2); type: physicochemical
[3] = Pharmacokinetics in rat after oral suspension; type: in vivo, rats; conditions: for Cmax / AUC(0-t): plasma; for AUC(0-t): read-out: AUC0-24 h
Description: Compound 365 was formulated similarly to Form C, suspension in 0.5% methylcellulose, 0.1% Tween 80 in purified water.

[4] = Pharmacokinetics in dog after oral suspension; type: in vivo; conditions: dogs (both genders), twice-daily oral; for Cmax / AUC(0-t): both sexes, dog, plasma, suspension in 0.5% methylcellulose; for AUC(0-t): read-out: AUC0-24 h
Procedure: Doses levels ranging from 50 mg/kg to 500 mg/kg were permitted to achieve pharmacological relevant systemic exposures.

[5] = Relative polymorph stability (statement); type: physicochemical; conditions: compared with the other forms
[6] = oral, rat, Table 8, formulated similarly to Form C (suspension in 0.5% methylcellulose, 0.1% Tween 80), 100 mg/kg/day
[7] = oral, rat, Table 8, formulated similarly to Form C (suspension in 0.5% methylcellulose, 0.1% Tween 80), 300 mg/kg/day
[8] = both sexes, rat, rats (both genders), once-daily oral, suspension in 0.5% methylcellulose, 0.1% Tween 80, 100 mg/kg/day
[9] = both sexes, rat, rats (both genders), once-daily oral, suspension in 0.5% methylcellulose, 0.1% Tween 80, 300 mg/kg/day
[10] = both sexes, rat, rats (both genders), once-daily oral, suspension in 0.5% methylcellulose, 0.1% Tween 80, 600 mg/kg/day

Compound: COc1cc(C)[nH]c(=O)c1CNC(=O)c1c(C)n([C@H](C)C2CCN(CC(F)(F)F)CC2)c2ccccc12 [Amorphous, (R)—N-((4-methoxy-6-methyl-2-oxo-1,2-dihydropyridin-3-yl)methyl)-2-methyl-1-(1-(1-(2,2,2-trifluoroethyl)piperidin-4-yl)ethyl)-1H-indole-3-carboxamide]
- Post DVS changes [1]: Amorphous
- DVS final sample wt lower than starting wt [1]: same wt ~1%
- DVS wt gain ([1]; at 95% RH, 25° C.): 7.4% wt gain
- Aqueous Solubility ([2]; pH 1.2): pH 1.2: ≥921 ug/mL
- Aqueous Solubility ([2]; pH 6.5): pH 6.5: 18 ug/mL
- Aqueous Solubility ([2]; pH 7.4): pH 7.4: 140 ug/mL
- Cmax [3, 6]: 7160 ng/mL
- AUC(0-t) [3, 6]: 24200 ng·h/mL
- Cmax [3, 7]: 9810 ng/mL
- AUC(0-t) [3, 7]: 78400 ng·h/mL
- Cmax and AUC compared with Form C ([3]; rat, at both 100 and 300 mpk): slightly superior

Compound: COc1cc(C)[nH]c(=O)c1CNC(=O)c1c(C)n([C@H](C)C2CCN(CC(F)(F)F)CC2)c2ccccc12 [Form A, (R)—N-((4-methoxy-6-methyl-2-oxo-1,2-dihydropyridin-3-yl)methyl)-2-methyl-1-(1-(1-(2,2,2-trifluoroethyl)piperidin-4-yl)ethyl)-1H-indole-3-carboxamide]
- Post DVS changes [1]: 1% reduction
- DVS final sample wt lower than starting wt [1]: wt ~0.8 lower %
- DVS wt gain ([1]; at 80% RH, 25° C.): 2% wt gain at
- DVS wt gain ([1]; at 95% RH, 25° C.): 5.3 wt gain at % wt
- solubility ([2]; aqueous medium at pH 1.2 (buffer not named), pH 1.2, simulated gastric fluid, pH 1.2): ≥ 961 µg/mL
- Aqueous Solubility ([2]; pH 6.5): pH 6.5: 31 ug/mL
- Aqueous Solubility ([2]; pH 7.4): pH 7.4: 28 ug/mL

Compound: COc1cc(C)[nH]c(=O)c1CNC(=O)c1c(C)n([C@H](C)C2CCN(CC(F)(F)F)CC2)c2ccccc12 [Form B, (R)—N-((4-methoxy-6-methyl-2-oxo-1,2-dihydropyridin-3-yl)methyl)-2-methyl-1-(1-(1-(2,2,2-trifluoroethyl)piperidin-4-yl)ethyl)-1H-indole-3-carboxamide]
- Post DVS changes [1]: No significant
- DVS wt gain ([1]; at 95% RH, 25° C.): 7.2% wt gain
- Aqueous Solubility ([2]; pH 1.2): pH 1.2: ≥970 ug/mL
- Aqueous Solubility ([2]; pH 6.5): pH 6.5: 120 ug/mL
- Aqueous Solubility ([2]; pH 7.4): pH 7.4: 112 ug/mL

Compound: COc1cc(C)[nH]c(=O)c1CNC(=O)c1c(C)n([C@H](C)C2CCN(CC(F)(F)F)CC2)c2ccccc12 [Form C, (R)—N-((4-methoxy-6-methyl-2-oxo-1,2-dihydropyridin-3-yl)methyl)-2-methyl-1-(1-(1-(2,2,2-trifluoroethyl)piperidin-4-yl)ethyl)-1H-indole-3-carboxamide]
- DVS hygroscopicity ([1]; 25° C.): Non-
- Post DVS changes [1]: No significant
- DVS wt gain ([1]; at 95% RH, 25° C.): ≤ 2.3% wt
- Aqueous Solubility ([2]; pH 1.2): pH 1.2: ≥913 ug/mL
- Aqueous Solubility ([2]; pH 6.5): pH 6.5: 14 ug/mL
- Aqueous Solubility ([2]; pH 7.4): pH 7.4: 9 ug/mL
- Cmax ([4]; 0.1% Tween 80, 50 mg/kg BID): 6600 ng/mL
- AUC(0-t) ([4]; 0.1% Tween 80, 50 mg/kg BID): 42200 ng·h/mL
- Cmax ([4]; 0.1% Tween 80, 150 mg/kg BID): 21300 ng/mL
- AUC(0-t) ([4]; 0.1% Tween 80, 150 mg/kg BID): 176000 ng·h/mL
- Cmax ([4]; 0.1% Tween 80, 500 mg/kg BID): 34200 ng/mL
- AUC(0-t) ([4]; 0.1% Tween 80, 500 mg/kg BID): 378000 ng·h/mL
- systemic exposure AUC(0-24), dependence on dose ([4]; between 50 and 500 mg/kg BID): increased mostly dose-proportionally
- Cmax [3, 8]: 6140 ng/mL
- AUC(0-t) [3, 8]: 19600 ng·h/mL
- Cmax [3, 9]: 12800 ng/mL
- AUC(0-t) [3, 9]: 86400 ng·h/mL
- Cmax [3, 10]: 56800 ng/mL
- AUC(0-t) [3, 10]: 128000 ng·h/mL
- systemic exposure AUC(0-24), dependence on dose ([3]; rats (both genders), once-daily oral, between 100 and 600 mg/kg): increased dose-proportionally
- polymorph stability [5]: the most stable polymorph
